Measured values published in patent US20260232767A1, “INTERLEUKIN-23 RECEPTOR ANTAGONIST PEPTIDES FOR USE IN THE TREATMENT OF PSORIASIS” (Janssen Pharmaceutica NV, priority 2023, published 2026).

Test system: subjects with moderate-to-severe plaque psoriasis
Assay: Hematology and chemistry laboratory values by CTCAE grade
Assay type: in vivo, human
Conditions: through Week 56
Excerpt: The proportion of participants who discontinued study intervention due to one or more AEs was low (n=4). All events were singular in nature with no apparent dose-dependent increase (Table 48 and Table 52). The number of participants with abnormal hematology and chemistry laboratory values with CTCAE toxicity grade≥3 were low through the end of the study (Table 43 through Table 46). There was no apparent dose-dependent increase in laboratory abnormality occurrences.

SMILES: CC(=O)NCCCC[C@@H]1NC(=O)[C@H](Cc2c[nH]c3c(C)cccc23)NC(=O)[C@H]([C@@H](C)O)NC(=O)[C@H](CC(N)=O)NC(=O)[C@@H](NC(C)=O)C(C)(C)SSC(C)(C)[C@@H](C(=O)N[C@@H](Cc2ccc(OCCN)cc2)C(=O)N[C@@H](Cc2ccc3ccccc3c2)C(=O)NC2(C(=O)N[C@@H](CCC(=O)O)C(=O)N[C@@H](CC(N)=O)C(=O)N[C@@H](Cc3cccnc3)C(=O)N(C)CC(N)=O)CCOCC2)NC1=O [IL-23 receptor antagonist peptide, Ac-[Pen]*-N-T-[W(7-Me)]-[Lys(Ac)]-[Pen]*-Phe[4-(2-aminoethoxy)]-[2-Nal]-[THP]-E-N-[3-Pal]-Sarc-NH2 (*[Pen]-[Pen]* formdisulfidebond)]
- Platelets (×10^9/L) (decreased): subjects with Grade 1 (25 mg QD): 5
- Platelets (×10^9/L) (decreased): subjects with Grade 2 (25 mg QD): 0
- Platelets (×10^9/L) (decreased): subjects with Grade 3 (25 mg QD): 0
- Platelets (×10^9/L) (decreased): subjects with Grade 4 (25 mg QD): 0
- Platelets (×10^9/L) (decreased): subjects with postbaseline maximum toxicity grade >0 (25 mg QD): 5
- Potassium (decreased): Subjects with Grade 1 (25 mg QD): 0
- Potassium (decreased): Subjects with Grade 2 (25 mg QD): 0
- Potassium (decreased): Subjects with Grade 3 (25 mg QD): 0
- Potassium (decreased): Subjects with Grade 4 (25 mg QD): 0
- Potassium (decreased): Subjects with postbaseline maximum toxicity grade >0 (25 mg QD): 0
- Potassium (increased): Subjects with Grade 3 (25 mg QD): 0
- Potassium (increased): Subjects with Grade 4 (25 mg QD): 0
- Potassium (increased): Subjects with postbaseline maximum toxicity grade >0 (25 mg QD): 7
- Sodium (decreased): Subjects with Grade 2 (25 mg QD): 0
- Sodium (decreased): Subjects with Grade 3 (25 mg QD): 0
- Sodium (decreased): Subjects with Grade 4 (25 mg QD): 0
- Sodium (increased): Subjects with Grade 2 (25 mg QD): 0
- Sodium (increased): Subjects with Grade 3 (25 mg QD): 0
- Sodium (increased): Subjects with Grade 4 (25 mg QD): 0
- Total Bilirubin (increased): Subjects with Grade 2 (25 mg QD): 0
- Total Bilirubin (increased): Subjects with Grade 3 (25 mg QD): 0
- Total Bilirubin (increased): Subjects with Grade 4 (25 mg QD): 0
- Triglycerides (increased): Subjects with Grade 4 (25 mg QD): 0
- WBC (×10^9/L) (decreased): subjects with Grade 2 (25 mg QD): 0
- WBC (×10^9/L) (decreased): subjects with Grade 3 (25 mg QD): 0
- WBC (×10^9/L) (decreased): subjects with Grade 4 (25 mg QD): 0
- WBC (×10^9/L) (increased): subjects with Grade 1 (25 mg QD): 0
- WBC (×10^9/L) (increased): subjects with Grade 2 (25 mg QD): 0
- WBC (×10^9/L) (increased): subjects with Grade 3 (25 mg QD): 0
- WBC (×10^9/L) (increased): subjects with Grade 4 (25 mg QD): 0
- WBC (×10^9/L) (increased): subjects with postbaseline maximum toxicity grade >0 (25 mg QD): 0
- Alanine Aminotransferase (increased): Subjects with Grade 2 (50 mg QD): 0
- Alanine Aminotransferase (increased): Subjects with Grade 3 (50 mg QD): 0
- Alanine Aminotransferase (increased): Subjects with Grade 4 (50 mg QD): 0
- Albumin (decreased): Subjects with Grade 1 (50 mg QD): 0
- Albumin (decreased): Subjects with Grade 2 (50 mg QD): 0
- Albumin (decreased): Subjects with Grade 3 (50 mg QD): 0
- Albumin (decreased): Subjects with Grade 4 (50 mg QD): 0
- Albumin (decreased): Subjects with postbaseline maximum toxicity grade >0 (50 mg QD): 0
- Alkaline Phosphatase (increased): Subjects with Grade 2 (50 mg QD): 0
- Alkaline Phosphatase (increased): Subjects with Grade 3 (50 mg QD): 0
- Alkaline Phosphatase (increased): Subjects with Grade 4 (50 mg QD): 0
- Aspartate Aminotransferase (increased): Subjects with Grade 2 (50 mg QD): 0
- Aspartate Aminotransferase (increased): Subjects with Grade 3 (50 mg QD): 0
- Aspartate Aminotransferase (increased): Subjects with Grade 4 (50 mg QD): 0
- Calcium corrected (decreased): Subjects with Grade 2 (50 mg QD): 0
- Calcium corrected (decreased): Subjects with Grade 3 (50 mg QD): 0
- Calcium corrected (decreased): Subjects with Grade 4 (50 mg QD): 0
- Calcium corrected (increased): Subjects with Grade 1 (50 mg QD): 0
- Calcium corrected (increased): Subjects with Grade 2 (50 mg QD): 0
- Calcium corrected (increased): Subjects with Grade 3 (50 mg QD): 0
- Calcium corrected (increased): Subjects with Grade 4 (50 mg QD): 0
- Calcium corrected (increased): Subjects with postbaseline maximum toxicity grade >0 (50 mg QD): 0
- Cholesterol (increased): Subjects with Grade 2 (50 mg QD): 0
- Cholesterol (increased): Subjects with Grade 3 (50 mg QD): 0
- Cholesterol (increased): Subjects with Grade 4 (50 mg QD): 0
- Creatine Kinase (increased): Subjects with Grade 3 (50 mg QD): 0
- Creatinine (increased): Subjects with Grade 2 (50 mg QD): 0
- Creatinine (increased): Subjects with Grade 3 (50 mg QD): 0
- Creatinine (increased): Subjects with Grade 4 (50 mg QD): 0
- Gamma Glutamyl Transferase (increased): Subjects with Grade 2 (50 mg QD): 0
- Gamma Glutamyl Transferase (increased): Subjects with Grade 3 (50 mg QD): 0
- Gamma Glutamyl Transferase (increased): Subjects with Grade 4 (50 mg QD): 0
- Glucose (decreased): Subjects with Grade 2 (50 mg QD): 0
- Glucose (decreased): Subjects with Grade 3 (50 mg QD): 0
- Glucose (decreased): Subjects with Grade 4 (50 mg QD): 0
- Hemoglobin (g/L) (decreased): subjects with Grade 3 (50 mg QD): 0
- Hemoglobin (g/L) (decreased): subjects with Grade 4 (50 mg QD): 0
- Hemoglobin (g/L) (decreased): subjects with postbaseline maximum toxicity grade >0 (50 mg QD): 5
- Hemoglobin (g/L) (increased): subjects with Grade 1 (50 mg QD): 0
- Hemoglobin (g/L) (increased): subjects with Grade 2 (50 mg QD): 0
- Hemoglobin (g/L) (increased): subjects with Grade 3 (50 mg QD): 0
- Hemoglobin (g/L) (increased): subjects with Grade 4 (50 mg QD): 0
- Hemoglobin (g/L) (increased): subjects with postbaseline maximum toxicity grade >0 (50 mg QD): 0
- Lymphocytes (×10^9/L) (decreased): subjects with Grade 3 (50 mg QD): 0
- Lymphocytes (×10^9/L) (decreased): subjects with Grade 4 (50 mg QD): 0
- Lymphocytes (×10^9/L) (increased): subjects with Grade 1 (50 mg QD): 0
- Lymphocytes (×10^9/L) (increased): subjects with Grade 2 (50 mg QD): 0
- Lymphocytes (×10^9/L) (increased): subjects with Grade 3 (50 mg QD): 0
- Lymphocytes (×10^9/L) (increased): subjects with Grade 4 (50 mg QD): 0
- Lymphocytes (×10^9/L) (increased): subjects with postbaseline maximum toxicity grade >0 (50 mg QD): 0
- Magnesium (decreased): Subjects with Grade 1 (50 mg QD): 0
- Magnesium (decreased): Subjects with Grade 2 (50 mg QD): 0
- Magnesium (decreased): Subjects with Grade 3 (50 mg QD): 0
- Magnesium (decreased): Subjects with Grade 4 (50 mg QD): 0
- Magnesium (decreased): Subjects with postbaseline maximum toxicity grade >0 (50 mg QD): 0
- Magnesium (increased): Subjects with Grade 2 (50 mg QD): 0
- Magnesium (increased): Subjects with Grade 3 (50 mg QD): 0
- Magnesium (increased): Subjects with Grade 4 (50 mg QD): 0
- Neutrophils (×10^9/L) (decreased): subjects with Grade 3 (50 mg QD): 0
- Neutrophils (×10^9/L) (decreased): subjects with Grade 4 (50 mg QD): 0
- Platelets (×10^9/L) (decreased): subjects with Grade 1 (50 mg QD): 0
- Platelets (×10^9/L) (decreased): subjects with Grade 2 (50 mg QD): 0
- Platelets (×10^9/L) (decreased): subjects with Grade 3 (50 mg QD): 0
- Platelets (×10^9/L) (decreased): subjects with Grade 4 (50 mg QD): 0
- Platelets (×10^9/L) (decreased): subjects with postbaseline maximum toxicity grade >0 (50 mg QD): 0
- Potassium (decreased): Subjects with Grade 1 (50 mg QD): 0
- Potassium (decreased): Subjects with Grade 2 (50 mg QD): 0
- Potassium (decreased): Subjects with Grade 3 (50 mg QD): 0
- Potassium (decreased): Subjects with Grade 4 (50 mg QD): 0
- Potassium (decreased): Subjects with postbaseline maximum toxicity grade >0 (50 mg QD): 0
- Potassium (increased): Subjects with Grade 2 (50 mg QD): 0
- Potassium (increased): Subjects with Grade 4 (50 mg QD): 0
- Sodium (decreased): Subjects with Grade 1 (50 mg QD): 0
- Sodium (decreased): Subjects with Grade 2 (50 mg QD): 0
- Sodium (decreased): Subjects with Grade 3 (50 mg QD): 0
- Sodium (decreased): Subjects with Grade 4 (50 mg QD): 0
- Sodium (decreased): Subjects with postbaseline maximum toxicity grade >0 (50 mg QD): 0
- Sodium (increased): Subjects with Grade 1 (50 mg QD): 0
- Sodium (increased): Subjects with Grade 2 (50 mg QD): 0
- Sodium (increased): Subjects with Grade 3 (50 mg QD): 0
- Sodium (increased): Subjects with Grade 4 (50 mg QD): 0
- Sodium (increased): Subjects with postbaseline maximum toxicity grade >0 (50 mg QD): 0
- Total Bilirubin (increased): Subjects with Grade 3 (50 mg QD): 0
- Total Bilirubin (increased): Subjects with Grade 4 (50 mg QD): 0
- Total Bilirubin (increased): Subjects with postbaseline maximum toxicity grade >0 (50 mg QD): 5
- Triglycerides (increased): Subjects with Grade 1 (50 mg QD): 0
- Triglycerides (increased): Subjects with Grade 4 (50 mg QD): 0
- WBC (×10^9/L) (decreased): subjects with Grade 3 (50 mg QD): 0
- WBC (×10^9/L) (decreased): subjects with Grade 4 (50 mg QD): 0
- WBC (×10^9/L) (increased): subjects with Grade 1 (50 mg QD): 0
- WBC (×10^9/L) (increased): subjects with Grade 2 (50 mg QD): 0
- WBC (×10^9/L) (increased): subjects with Grade 3 (50 mg QD): 0
- WBC (×10^9/L) (increased): subjects with Grade 4 (50 mg QD): 0
- WBC (×10^9/L) (increased): subjects with postbaseline maximum toxicity grade >0 (50 mg QD): 0
- Alanine Aminotransferase (increased): Subjects with Grade 1 (100 mg BID): 10
- Alanine Aminotransferase (increased): Subjects with Grade 3 (100 mg BID): 0
- Alanine Aminotransferase (increased): Subjects with Grade 4 (100 mg BID): 0
- Albumin (decreased): Subjects with Grade 1 (100 mg BID): 0
- Albumin (decreased): Subjects with Grade 2 (100 mg BID): 0
- Albumin (decreased): Subjects with Grade 3 (100 mg BID): 0
- Albumin (decreased): Subjects with Grade 4 (100 mg BID): 0
- Albumin (decreased): Subjects with postbaseline maximum toxicity grade >0 (100 mg BID): 0
- Alkaline Phosphatase (increased): Subjects with Grade 1 (100 mg BID): 0
- Alkaline Phosphatase (increased): Subjects with Grade 2 (100 mg BID): 0
- Alkaline Phosphatase (increased): Subjects with Grade 3 (100 mg BID): 0
- Alkaline Phosphatase (increased): Subjects with Grade 4 (100 mg BID): 0
- Alkaline Phosphatase (increased): Subjects with postbaseline maximum toxicity grade >0 (100 mg BID): 0
- Aspartate Aminotransferase (increased): Subjects with Grade 1 (100 mg BID): 7
- Aspartate Aminotransferase (increased): Subjects with Grade 4 (100 mg BID): 0
- Aspartate Aminotransferase (increased): Subjects with postbaseline maximum toxicity grade >0 (100 mg BID): 9
- Calcium corrected (decreased): Subjects with Grade 3 (100 mg BID): 0
- Calcium corrected (decreased): Subjects with Grade 4 (100 mg BID): 0
- Calcium corrected (increased): Subjects with Grade 1 (100 mg BID): 0
- Calcium corrected (increased): Subjects with Grade 2 (100 mg BID): 0
- Calcium corrected (increased): Subjects with Grade 3 (100 mg BID): 0
- Calcium corrected (increased): Subjects with Grade 4 (100 mg BID): 0
- Calcium corrected (increased): Subjects with postbaseline maximum toxicity grade >0 (100 mg BID): 0
- Cholesterol (increased): Subjects with Grade 2 (100 mg BID): 0
- Cholesterol (increased): Subjects with Grade 3 (100 mg BID): 0
- Cholesterol (increased): Subjects with Grade 4 (100 mg BID): 0
